Measurements reported in the supplement of paper PMC4862054.

Tests used:
Conditions in all cases: incubation time: 72 h
CAL-85-1 [1] = assay: normalised response (% of control), CellTiter-Glo; higher = more viable cells (100 = DMSO, 0 = benzethonium chloride kill control)
In short: (§1)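 Breast cancer cell lines were exposed for 72 h in 384-well plates to compound at 5 concentrations, 10-fold apart, covering a 10,000-fold range fixed for each compound. Plates were read for CellTox Green fluorescence and CellTiter-Glo luminescence and normalised to 0.1 % DMSO (100) and a positive kill control (0). Each value is the normalised signal at one concentration of the series.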

CAL-120 [2] = assay: as above
In short: as §1

HCC1599 [3] = assay: as above
In short: as §1

MFM-223 [4] = assay: as above
In short: as §1

MCF-10A = assay: as above
In short: as §1

SK-BR-3 [5] = assay: as above
In short: as §1

DU-4475 [6] = assay: as above
In short: as §1

MDA-MB-468 [7] = assay: as above
In short: as §1

BT-549 [8] = assay: as above
In short: as §1

CAL-148 [9] = assay: as above
In short: as §1

Hs578T [10] = assay: as above
In short: as §1

HDQ-P1 [11] = assay: as above
In short: as §1

CAL-51 [12] = assay: as above
In short: as §1

BT-474 [13] = assay: as above
In short: as §1

HCC1937 [14] = assay: as above
In short: as §1

MDA-MB-436 [15] = assay: as above
In short: as §1

MDA-MB-453 [16] = assay: as above
In short: as §1

HCC1143 [17] = assay: as above
In short: as §1

MDA-MB-231 [18] = assay: as above
In short: as §1

CAL-85-1 [19] = assay: normalised viability (% of control), CellTiter-Blue; higher = more viable cells (100 = DMSO, 0 = benzethonium chloride kill control)
Description: (§2)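 DSRT, CellTiter-Blue viability, 72 h incubation. Signal is normalised to DMSO and benzethonium chloride controls. Value is the normalised response at dose 1.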

CAL-120 [20] = assay: as above
Description: as §2

HCC1599 [21] = assay: as above
Description: as §2

MFM-223 [22] = assay: as above
Description: as §2

SK-BR-3 [23] = assay: as above
Description: as §2

DU-4475 [24] = assay: as above
Description: as §2

MDA-MB-468 [25] = assay: as above
Description: as §2

BT-549 [26] = assay: as above
Description: as §2

CAL-148 [27] = assay: as above
Description: as §2

Hs578T [28] = assay: as above
Description: as §2

HDQ-P1 [29] = assay: as above
Description: as §2

CAL-51 [30] = assay: as above
Description: as §2

BT-474 [31] = assay: as above
Description: as §2

HCC1937 [32] = assay: as above
Description: as §2

MDA-MB-436 [33] = assay: as above
Description: as §2

MDA-MB-453 [34] = assay: as above
Description: as §2

HCC1143 [35] = assay: as above
Description: as §2

MDA-MB-231 [36] = assay: as above
Description: as §2

Structure (SMILES) | normalised response (CAL-85-1 [1]) | normalised response (CAL-120 [2]) | normalised response (HCC1599 [3]) | normalised response (MFM-223 [4]) | normalised response (MCF-10A) | normalised response (SK-BR-3 [5]) | normalised response (DU-4475 [6]) | normalised response (MDA-MB-468 [7]) | normalised response (BT-549 [8]) | normalised response (CAL-148 [9]) | normalised response (Hs578T [10]) | normalised response (HDQ-P1 [11]) | normalised response (CAL-51 [12]) | normalised response (BT-474 [13]) | normalised response (HCC1937 [14]) | normalised response (MDA-MB-436 [15]) | normalised response (MDA-MB-453 [16]) | normalised response (HCC1143 [17]) | normalised response (MDA-MB-231 [18]) | normalised viability (CAL-85-1 [19]) | normalised viability (CAL-120 [20]) | normalised viability (HCC1599 [21]) | normalised viability (MFM-223 [22]) | normalised viability (SK-BR-3 [23]) | normalised viability (DU-4475 [24]) | normalised viability (MDA-MB-468 [25]) | normalised viability (BT-549 [26]) | normalised viability (CAL-148 [27]) | normalised viability (Hs578T [28]) | normalised viability (HDQ-P1 [29]) | normalised viability (CAL-51 [30]) | normalised viability (BT-474 [31]) | normalised viability (HCC1937 [32]) | normalised viability (MDA-MB-436 [33]) | normalised viability (MDA-MB-453 [34]) | normalised viability (HCC1143 [35]) | normalised viability (MDA-MB-231 [36])
Oc1ncnc2[nH]ncc12 [Allopurinol] (1 nM) | 99.3% | 100% | 101% | 105% | 108% | 117% | 102% | 109% | 106% | 100% | 103% | 101% | 95.1% | 101% | 98.2% | 99.9% | 113% | 108% | 101% | 112% | 111% | 91.2% | 96.2% | 91.7% | 109% | 109% | 92.2% | 119% | 95.6% | 108% | 92.5% | 97.2% | 78.6% | 102% | 116% | 106% | 93.5%
Cc1sc2c(c1C)C(c1ccc(Cl)cc1)=N[C@@H](CC(=O)OC(C)(C)C)c1nnc(C)n1-2 [(+)JQ1] (1 nM) | 97.2% | 98.5% | 96.6% | 104% | 105% | 111% | 106% | 103% | 103% | 113% | 98.1% | 101% | 85% | 107% | 95.8% | 127% | 126% | 103% | 106% | 87.4% | 90.3% | 113% | 102% | 107% | 110% | 104% | 104% | 108% | 114% | 90.9% | 97.5% | 114% | 97.4% | 139% | 177% | 126% | 114%
CC1=C2C[C@H]3[C@@H](CC=C4C[C@@H](O)CC[C@@]43C)[C@@H]2CC[C@]12O[C@@H]1C[C@H](C)CN[C@H]1[C@H]2C [Cyclopamine] (1 nM) | 100% | 107% | 98.1% | 103% | 108% | 115% | 106% | 101% | 104% | 123% | 103% | 103% | 107% | 103% | 106% | 106% | 111% | 103% | 103% | 94.5% | 94% | 96.5% | 97.5% | 97.3% | 120% | 103% | 111% | 117% | 121% | 135% | 109% | 118% | 109% | 126% | 102% | 97.4% | 100%
CC[C@@H]1C(=O)OC[C@@H]1Cc1cncn1C [Pilocarpine] (4 nM) | 95% | 94% | 76.7% | 101% | 94.6% | 99.2% | 100% | 98.4% | 101% | 96.4% | 103% | 95.7% | 123% | 91.7% | 92.8% | 79.3% | 111% | 93.7% | 96.1% | 96.3% | 100% | 85.4% | 88.8% | 91.8% | 99.7% | 104% | 103% | 108% | 92.9% | 133% | 108% | 74.9% | 94.3% | 113% | 99.1% | 97.6% | 97.1%
CC1(C)CNc2cc(NC(=O)c3cccnc3NCc3ccncc3)ccc21 [Motesanib] (1 nM) | 96% | 94% | 91.5% | 101% | 91.8% | 92.1% | 99.9% | 103% | 99.7% | 89.4% | 96.9% | 93.5% | 107% | 91.2% | 93.1% | 94.8% | 103% | 99% | 97.1% | 75.9% | 79.6% | 84.8% | 77.8% | 82.2% | 94.1% | 87.1% | 103% | 96.5% | 103% | 84.2% | 110% | 96.6% | 93.4% | 71.3% | 85% | 86.3% | 76.7%
Cn1cnc2c(F)c(Nc3ccc(Br)cc3Cl)c(C(=O)NOCCO)cc21 [Selumetinib] (1 nM) | 104% | 93.3% | 93.2% | 94.9% | 81.2% | 96.5% | 95.5% | 93.8% | 103% | 87.8% | 99% | 91.4% | 99.8% | 84.7% | 89.5% | 80.8% | 111% | 89.6% | 97% | 90.1% | 81% | 98.5% | 83.6% | 94% | 102% | 101% | 102% | 107% | 107% | 107% | 113% | 104% | 100% | 97.6% | 109% | 90.6% | 89%
Nc1ncn([C@@H]2O[C@H](CO)[C@@H](O)[C@H]2O)c(=O)n1 [Azacitidine] (1 nM) | 103% | 95.9% | 96.8% | 104% | 101% | 105% | 102% | 100% | 96.5% | 96.1% | 98.7% | 98.7% | 129% | 97.1% | 94% | 102% | 112% | 95.4% | 101% | 94.9% | 84.4% | 89.1% | 95.5% | 94.6% | 109% | 95.5% | 93.7% | 92% | 105% | 99.9% | 102% | 89.5% | 85% | 108% | 102% | 89.3% | 89.3%
